# Laboratory results as given in ChEMBL document CHEMBL4673316, “Synthesis and evaluation of a UMI-77-based fluorescent probe for selective detecting Mcl-1 protein and imaging in living cancer cells” (Bioorg Med Chem, 2021).
# Calls of active or inactive are those of the source. No cut-off for these calls is given here.
# Legend:
# [1] = biological target: Apoptosis regulator Bcl-2 (Homo sapiens, UniProt P10415); assay: Inhibition of Bcl2 (unknown origin) using 5-FAM-Bid-BH3 as substrate incubated for 30 mins followed by substrate addition and measured after 20 mins by fluorescence polarization assay
# [2] = biological target: T1, Induced myeloid leukemia cell differentiation protein Mcl-1 (Homo sapiens, UniProt Q07820); assay: Inhibition of Mcl-1 (unknown origin) using 5-FAM-Bid-BH3 as substrate incubated for 30 mins followed by substrate addition and measured after 20 mins by fluorescence polarization assay
# [3] = biological target: T1, Induced myeloid leukemia cell differentiation protein Mcl-1; assay: Binding affinity to Mcl1 (unknown origin) at 5 uM incubated for 20 mins by fluorescence based assay (reference value: 0.66 %)
# HUVEC = assay: Cytotoxicity against HUVEC cells assessed as reduction in cell viability at 5 to 50 uM incubated for 1 hr by CCK8 assay; format: cell-based; settings: human, dose 5-50 µM
# [4] = biological target: T1, Induced myeloid leukemia cell differentiation protein Mcl-1; assay: Binding affinity to Mcl1 in human PC-3 cells at 5 uM incubated for 30 mins by flow cytometry analysis; format: cell-based
# [5] = biological target: T1, Induced myeloid leukemia cell differentiation protein Mcl-1; assay: Binding affinity to Mcl1 in human PC-3 cells at 5 uM incubated for 30 mins in presence of UMI-77 by flow cytometry analysis; format: cell-based
# Homo sapiens [6] = species on record: Homo sapiens; assay: Selectivity index, ratio of binding for BSA (unknown origin) to binding for Mcl-1 (unknown origin)
# [7] = Drug localization in mitochondria of human PC-3 cells at 5 uM incubated for 30 mins by MitoTracker Red CMXRos dye and Hoechst 33342 nuclear dye based fluorescence microscopic analysis; format: ADME; settings: pc-3, 0.5 h
# [8] = biological target: T1, Induced myeloid leukemia cell differentiation protein Mcl-1; assay: Binding affinity to Mcl1 in HUVEC cells at 5 uM incubated for 30 mins by fluorescence microscopy analysis; format: cell-based
# [9] = biological target: T1, Induced myeloid leukemia cell differentiation protein Mcl-1; assay: Binding affinity to Mcl1 (unknown origin) at 5 uM incubated for 20 mins in presence of 5 to 100 uM UMI-77 by fluorescence based assay
# [10] = Effect on human PC-3 cells with knocked out Mcl1 gene at 5 uM incubated for 30 mins by fluorescence microscopic analysis; format: ADME, cell-based; settings: pc-3, 0.5 h
# Homo sapiens [11] = species on record: Homo sapiens; assay: Selectivity index, ratio of Ki for Bcl-2 (unknown origin) to Ki for Mcl-1 (unknown origin); settings: dose 5.0 µM, time 20.0 min
# [12] = biological target: T1, Induced myeloid leukemia cell differentiation protein Mcl-1; assay: Binding affinity to Mcl1 (unknown origin) at 5 uM incubated for 20 mins by fluorescence based assay relative to control
# [13] = biological target: T1, Induced myeloid leukemia cell differentiation protein Mcl-1; assay: Binding affinity to Mcl1 in human PC-3 cells at 5 uM incubated for 30 mins by fluorescence microscopy analysis; format: cell-based
# PC-3 = assay: Cytotoxicity against human PC-3 cells assessed as reduction in cell viability at 5 to 50 uM incubated for 1 hr by CCK8 assay; format: cell-based; settings: pc-3, 1 h, dose 5-50 µM
# [14] = biological target: T1, Induced myeloid leukemia cell differentiation protein Mcl-1; assay: Binding affinity to Mcl1 (unknown origin) at 5 uM incubated for 20 mins by fluorescence based assay
# [15] = biological target: T1, Induced myeloid leukemia cell differentiation protein Mcl-1; assay: Binding affinity to Mcl1 in human PC-3 cells at 5 uM incubated for 30 mins in presence of UMI-77 by fluorescence microscopy analysis; format: cell-based
# T1 sequence (Q07820 whole entry): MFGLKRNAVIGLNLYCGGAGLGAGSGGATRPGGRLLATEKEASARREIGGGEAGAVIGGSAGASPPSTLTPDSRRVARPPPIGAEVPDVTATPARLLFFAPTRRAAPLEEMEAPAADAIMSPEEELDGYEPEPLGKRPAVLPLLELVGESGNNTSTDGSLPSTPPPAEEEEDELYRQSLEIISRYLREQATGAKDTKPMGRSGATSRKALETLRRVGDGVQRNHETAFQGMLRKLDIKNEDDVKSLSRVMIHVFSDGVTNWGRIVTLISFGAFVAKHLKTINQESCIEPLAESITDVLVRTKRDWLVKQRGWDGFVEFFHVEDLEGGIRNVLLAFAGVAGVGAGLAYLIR
# Apoptosis regulator Bcl-2, sequence (P10415 whole entry): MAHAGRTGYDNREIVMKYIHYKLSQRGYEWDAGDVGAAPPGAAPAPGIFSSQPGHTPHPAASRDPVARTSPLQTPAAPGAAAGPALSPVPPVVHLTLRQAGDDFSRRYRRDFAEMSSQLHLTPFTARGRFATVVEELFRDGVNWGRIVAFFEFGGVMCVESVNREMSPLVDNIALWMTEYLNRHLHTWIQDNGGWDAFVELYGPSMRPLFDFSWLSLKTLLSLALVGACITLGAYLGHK
Ki [1],Ki [2],Activity [3],Activity [4],Activity [5],Ratio (Homo sapiens [6]),Drug uptake [7],Activity [8],Activity [9],Ratio Ki (Homo sapiens [11]),fold change (FC) [12],Activity [13],Activity [14],Activity [15],Structure (SMILES),Activity (HUVEC),Activity [10],Activity (PC-3)
11000 nM,210 nM,–,–,–,–,–,–,–,–,–,–,–,–,O=C(O)CSc1cc(NS(=O)(=O)c2ccc(Br)cc2)c2ccccc2c1O,–,–,–
2200 nM,120 nM,6.47%,Active,inactive,2,Active,inactive,inactive,5,5,Active,Active,inactive,CN(C)c1cccc2c(S(=O)(=O)Nc3cc(SCC(=O)O)c(O)c4ccccc34)cccc12,Non-Toxic,Non-Toxic,Non-Toxic
